Measured values as given in PubChem BioAssay (NCI).
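How tested: cells in 96-well plates exposed to compound for 48 hours at five concentrations. Here, GI50 denotes the concentration required for 50% inhibition of growth. TGI denotes the concentration required for complete inhibition of growth.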

Assays:
Assay in all cases: NCI anticancer screen, dose series, 48 h
[1] = system: 786-0 renal
[2] = system: A498 renal
[3] = system: A549 NSCLC
[4] = system: ACHN renal
[5] = system: BT-549 breast
[6] = system: CAKI-1 renal
[7] = system: COLO 205 colon
[8] = system: DU-145 prostate
[9] = system: HCC-2998 colon
[10] = system: HCT-116 colon
[11] = system: HCT-15 colon
[12] = system: HOP-62 NSCLC
[13] = system: HS 578T breast
[14] = system: HT29 colon
[15] = system: IGROV1 ovarian
[16] = system: K-562 leukemia
[17] = system: KM12 colon
[18] = system: M14 melanoma
[19] = system: MALME-3M melanoma
[20] = system: MCF7 breast
[21] = system: MDA-MB-231 breast
[22] = system: MOLT-4 leukemia
[23] = system: NCI-H226 lung
[24] = system: NCI-H23 lung
[25] = system: NCI-H460 lung
[26] = system: NCI-H522 lung
[27] = system: NCI/ADR-RES ovarian
[28] = system: OVCAR-3 ovarian
[29] = system: OVCAR-5 ovarian
[30] = system: OVCAR-8 ovarian
[31] = system: PC-3 prostate
[32] = system: RPMI-8226 leukemia
[33] = system: RXF 393 renal
[34] = system: SF-268 CNS
[35] = system: SF-295 CNS
[36] = system: SF-539 CNS
[37] = system: SK-MEL-2 melanoma
[38] = system: SK-MEL-28 melanoma
[39] = system: SK-MEL-5 melanoma
[40] = system: SK-OV-3 ovarian
[41] = system: SN12C renal
[42] = system: SNB-19 CNS
[43] = system: SNB-75 CNS
[44] = system: SR leukemia
[45] = system: SW-620 colon
[46] = system: T-47D breast
[47] = system: U251 CNS
[48] = system: UACC-257 melanoma
[49] = system: UACC-62 melanoma
[50] = system: UO-31 renal
[51] = system: CCRF-CEM leukemia
[52] = system: EKVX NSCLC
[53] = system: HL-60(TB) leukemia
[54] = system: HOP-92 NSCLC
[55] = system: LOX IMVI melanoma
[56] = system: MDA-MB-435
[57] = system: TK-10 renal

## O=C(Nc1cccc(-n2cc(-c3ccncc3)c(-c3cc(O)cc(Cl)c3)n2)c1)Nc1ccc(Cl)c(Cl)c1
[1]
  GI50: 1.48 µM
  TGI: 3.71 µM
[2]
  GI50: 2.09 µM
  TGI: 9.06 µM
[3]
  GI50: 1.96 µM
  TGI: 7.54 µM
[4]
  GI50: 2.21 µM
  TGI: 8.71 µM
[5]
  GI50: 2060 nM
  TGI: 5.22 µM
[6]
  GI50: 2.21 µM
  TGI: 7.01 µM
[7]
  GI50: 1.96 µM
  TGI: 3.78 µM
[8]
  GI50: 2.8 µM
  TGI: 10.1 µM
[9]
  GI50: 2.93 µM
  TGI: 8.99 µM
[10]
  GI50: 1740 nM
  TGI: 4.1 µM
[11]
  GI50: 2.1 µM
  TGI: 8.04 µM
[12]
  GI50: 2.82 µM
  TGI: 8.51 µM
[13]
  GI50: 3.23 µM
  TGI: > 100 µM
[14]
  GI50: 1920 nM
  TGI: 3.9 µM
[15]
  GI50: 2860 nM
  TGI: 9.23 µM
[16]
  GI50: 2560 nM
  TGI: > 100 µM
[17]
  GI50: 1500 nM
  TGI: 3.69 µM
[18]
  GI50: 1.44 µM
  TGI: 3.28 µM
[19]
  GI50: 1.8 µM
  TGI: 5.48 µM
[20]
  GI50: 2800 nM
  TGI: 9.75 µM
[21]
  GI50: 1.01 µM
  TGI: 7.7 µM
[22]
  GI50: 1430 nM
  TGI: 5.16 µM
[23]
  GI50: 2.28 µM
  TGI: 7.16 µM
[24]
  GI50: 2.41 µM
  TGI: 6.29 µM
[25]
  GI50: 2.18 µM
  TGI: 6.14 µM
[26]
  GI50: 1.1 µM
  TGI: 3.14 µM
[27]
  GI50: 3.21 µM
  TGI: > 100 µM
[28]
  GI50: 1960 nM
  TGI: 5.05 µM
[29]
  GI50: 2.14 µM
  TGI: 6.16 µM
[30]
  GI50: 2.02 µM
  TGI: 5.06 µM
[31]
  GI50: 1.69 µM
  TGI: 5.68 µM
[32]
  GI50: 1440 nM
  TGI: 4.3 µM
[33]
  GI50: 0.555 µM
  TGI: 2.46 µM
[34]
  GI50: 3.22 µM
  TGI: 32.8 µM
[35]
  GI50: 1.7 µM
  TGI: 4.6 µM
[36]
  GI50: 1.44 µM
  TGI: 3.27 µM
[37]
  GI50: 1800 nM
  TGI: 4.04 µM
[38]
  GI50: 2.14 µM
  TGI: 5.55 µM
[39]
  GI50: 1.62 µM
  TGI: 3.04 µM
[40]
  GI50: 3.4 µM
  TGI: 9.43 µM
[41]
  GI50: 2.78 µM
  TGI: 18.1 µM
[42]
  GI50: 3.18 µM
  TGI: 19 µM
[43]
  GI50: 1380 nM
  TGI: 4.82 µM
[44]
  GI50: 1310 nM
  TGI: 4.24 µM
[45]
  GI50: 3220 nM
  TGI: 9.97 µM
[46]
  GI50: 2.39 µM
  TGI: 6.17 µM
[47]
  GI50: 1440 nM
  TGI: 3.09 µM
[48]
  GI50: 1.95 µM
  TGI: 4.3 µM
[49]
  GI50: 1.69 µM
  TGI: 3.76 µM
[50]
  GI50: 1910 nM
  TGI: 6.51 µM

## O=C(/C=C/c1ccccc1O)c1ccccc1
[1]
  GI50: 14.4 µM
  TGI: 29.7 µM
[2]
  GI50: 15.2 µM
  TGI: 28.6 µM
[3]
  GI50: 17 µM
  TGI: 36.1 µM
[4]
  GI50: 11 µM
  TGI: 24.2 µM
[6]
  GI50: 4.26 µM
  TGI: 20.8 µM
[51]
  GI50: 2640 nM
  TGI: 8.19 µM
[7]
  GI50: 17.3 µM
  TGI: 38 µM
[8]
  GI50: 5.86 µM
  TGI: 18.7 µM
[52]
  GI50: 11 µM
  TGI: 29.2 µM
[9]
  GI50: 17.9 µM
  TGI: 32.6 µM
[10]
  GI50: 1580 nM
  TGI: 2.99 µM
[11]
  GI50: 10.6 µM
  TGI: 24.7 µM
[53]
  GI50: 1520 nM
  TGI: 11.1 µM
[12]
  GI50: 17.2 µM
  TGI: 52.7 µM
[54]
  GI50: 8.77 µM
  TGI: 23 µM
[13]
  GI50: 5.67 µM
  TGI: 30.4 µM
[14]
  GI50: 3550 nM
  TGI: 15.4 µM
[15]
  GI50: 1560 nM
  TGI: 4.12 µM
[16]
  GI50: 2510 nM
  TGI: 14.1 µM
[17]
  GI50: 1770 nM
  TGI: 4.16 µM
[55]
  GI50: 2090 nM
  TGI: 5.11 µM
[18]
  GI50: 8.23 µM
  TGI: 21.4 µM
[19]
  GI50: 5.5 µM
  TGI: 20.4 µM
[20]
  GI50: 1340 nM
  TGI: 5.69 µM
[21]
  GI50: 12.8 µM
  TGI: 29.9 µM
[56]
  GI50: 6.02 µM
  TGI: 21.1 µM
[22]
  GI50: 2780 nM
  TGI: 14.3 µM
[23]
  GI50: 12.8 µM
  TGI: 26.1 µM
[24]
  GI50: 9.63 µM
  TGI: 23.2 µM
[25]
  GI50: 14.2 µM
  TGI: 29 µM
[26]
  GI50: 9.1 µM
  TGI: 22 µM
[27]
  GI50: 21.7 µM
  TGI: > 100 µM
[28]
  GI50: 3140 nM
  TGI: 12.3 µM
[29]
  GI50: 15.3 µM
  TGI: 31.1 µM
[30]
  GI50: 4.39 µM
  TGI: 17.7 µM
[31]
  GI50: 7.13 µM
  TGI: 41.6 µM
[32]
  GI50: 2440 nM
  TGI: 6.68 µM
[33]
  GI50: 10.3 µM
  TGI: 23.4 µM
[34]
  GI50: 6.34 µM
  TGI: 21.2 µM
[35]
  GI50: 10.9 µM
  TGI: 26.4 µM
[36]
  GI50: 15.4 µM
  TGI: 34.1 µM
[38]
  GI50: 9.5 µM
  TGI: 22 µM
[39]
  GI50: 11.5 µM
  TGI: 23.9 µM
[40]
  GI50: 31.5 µM
  TGI: > 100 µM
[41]
  GI50: 12.9 µM
  TGI: 28.7 µM
[42]
  GI50: 12.6 µM
  TGI: 25.3 µM
[44]
  GI50: 1830 nM
  TGI: 5.8 µM
[45]
  GI50: 1800 nM
  TGI: 3.72 µM
[46]
  GI50: 14.7 µM
  TGI: 64.5 µM
[57]
  GI50: 11.9 µM
  TGI: 24.7 µM
[47]
  GI50: 4180 nM
  TGI: 14.4 µM
[48]
  GI50: 12.1 µM
  TGI: 25.3 µM
[49]
  GI50: 13.1 µM
  TGI: 25.9 µM
[50]
  GI50: 1680 nM
  TGI: 15.7 µM
